According to patent US5824698A, “Antibacterial dibenzimidazole derivatives” (priority 1994, dated 1998):
≈ marks a conversion by molar mass, not a printed value. Read-outs that look alike come from different tables or passages of the source.

Experiments:
Assay in all cases: Antibacterial activity in vitro (MIC, standard agar method)
Type in all cases: cell-based
B. subtilis ATCC 585369 = details: Bacillus subtilis, ATCC585369, DST agar, 35° C., 20 hours, read-out: Minimum inhibitory concentration (MIC)
Procedure: (§1) The minimum inhibitory concentration (MIC) of the substances investigated against gram-positive and gram-negative strains was determined using standard agar methods. The compounds were dissolved in a small amount of dimethyl sulphoxide, diluted with water and incorporated into liquified DST agar at 50° C. The thus-produced agar plates were used immediately thereafter in the test. The test concentrations lay between 128 and 0.06 μg/ml. The bacterial inoculation solutions were prepared from pre-cultures grown overnight, diluted and applied to the agar surface using an inoculation device (Denley A400). The plates were incubated at 35° C. for 20 hours. The MIC was determined as the lowest concentration of substance which prevented a visible growth. A scarcely visible turbidity and the growth of less than 5 colonies were ignored. The determinations of the antibacterial activities (Tab. 1) were carried out not only for the free bases, but also for the hydrochloride salt of each compound. The same values were obtained within experimental error.

E. cloacae P 99 = details: Enterobacter cloacae, P99, 20 h, read-out: Minimum inhibitory concentration (MIC)
Procedure: as §1

E. coli 1346 = details: Escherichia coli, DST agar, 35° C., 20 hours, read-out: Minimum inhibitory concentration (MIC)
Procedure: as §1

E. coli 1527 E = details: Escherichia coli, read-out: Minimum inhibitory concentration (MIC)
Procedure: as §1

E. coli 25922 = details: read-out: Minimum inhibitory concentration (MIC)
Procedure: as §1

E. coli AS-19 = details: Escherichia coli, AS19, DST agar, 35° C., 20 hours, read-out: Minimum inhibitory concentration (MIC)
Procedure: as §1

E. coli B = details: Escherichia coli, DST agar, 35° C., 20 hours, read-out: Minimum inhibitory concentration (MIC)
Procedure: as §1

E. coli DC2 = details: Escherichia coli, read-out: Minimum inhibitory concentration (MIC)
Procedure: as §1

E. coli H560 = details: Escherichia coli, H560, 20 h, read-out: Minimum inhibitory concentration (MIC)
Procedure: as §1

[1] = test system: E. coli K12 KEA-12 (GyrA); details: Escherichia coli, 20 h, read-out: Minimum inhibitory concentration (MIC)
Procedure: as §1

E. faecalis 6 = details: read-out: Minimum inhibitory concentration (MIC)
Procedure: as §1

K. oxytoca 1082E = details: Klebsiella oxytoca, DST agar, 35° C., 20 hours, read-out: Minimum inhibitory concentration (MIC)
Procedure: as §1

P. aeroginosa BA = details: DST agar, 35° C., 20 hours, read-out: Minimum inhibitory concentration (MIC)
Procedure: as §1

P. aeroguinosa 3351 = details: read-out: Minimum inhibitory concentration (MIC)
Procedure: as §1

P. aeruginosa 799/61 = details: Pseudomonas aeruginosa, 799/61, 20 h, read-out: Minimum inhibitory concentration (MIC)
Procedure: as §1

S. marcescens = details: Serratia marcescens, 20 h, read-out: Minimum inhibitory concentration (MIC)
Procedure: as §1

Staph. aureus 25923 = details: Staphylococcus aureus, DST agar, 35° C., 20 hours, read-out: Minimum inhibitory concentration (MIC)
Procedure: as §1

Staph. aureus 887 = details: Staphylococcus aureus, DST agar, 35° C., 20 hours, read-out: Minimum inhibitory concentration (MIC)
Procedure: as §1

Staph. haemolyticus 75 = details: Staphylococcus haemolyticus, DST agar, 35° C., 20 hours, read-out: Minimum inhibitory concentration (MIC)
Procedure: as §1

S. aureus 101 = details: Staphylococcus aureus, DST agar, 35° C., 20 hours, read-out: Minimum inhibitory concentration (MIC)
Procedure: as §1

E. coli 159 R = details: Escherichia coli, 159R, 20 h, read-out: Minimum inhibitory concentration (MIC)
Procedure: as §1

[2] = E. coli DC2, DST agar, 35° C., 20 hours
[3] = Enterococcus faecalis, E. faecalis 6, DST agar, 35° C., 20 hours
[4] = Escherichia coli, E. coli 25922, DST agar, 35° C., 20 hours

SMILES	MIC (B. subtilis ATCC 585369) [µg/mL]	MIC (E. cloacae P 99) [µg/mL]	MIC (E. coli 1346) [µg/mL]	MIC (E. coli 1527 E; 1527E, 20 h) [µg/mL]	MIC (E. coli 25922; Escherichia coli, 25922, 20 h) [µg/mL]	MIC (E. coli AS-19) [µg/mL]	MIC (E. coli B) [µg/mL]	MIC (E. coli DC2; [2]) [µg/mL]	MIC (E. coli H560) [µg/mL]	MIC [1] [µg/mL]	MIC (E. faecalis 6; [3]) [µg/mL]	MIC (K. oxytoca 1082E) [µg/mL]	MIC (P. aeroginosa BA) [µg/mL]	MIC (P. aeroguinosa 3351; 20 h) [µg/mL]	MIC (P. aeruginosa 799/61) [µg/mL]	MIC (S. marcescens) [µg/mL]	MIC (Staph. aureus 25923) [µg/mL]	MIC (Staph. aureus 887) [µg/mL]	MIC (Staph. haemolyticus 75) [µg/mL]	MIC (E. coli 25922; [4]) [µg/mL]	further results
COc1cc(-c2nc3ccc(-c4ccc5nc(-c6ccc(O)c(OC)c6)[nH]c5c4)cc3[nH]2)ccc1O [Example 3, 4-[2'-(4-Hydroxy-3-methoxy-phenyl)-6,6'-dibenzimidazol-2-yl]-2-methoxy-phenyl]	32 (≈ 66.9 µM)	> 128	64 (≈ 134 µM)	> 128	> 128	> 128	16 (≈ 33.4 µM)	8 (≈ 16.7 µM)	> 128	> 128	4 (≈ 8.36 µM)	> 128	> 128	> 128	> 128	> 128	4 (≈ 8.36 µM)	8 (≈ 16.7 µM)	4 (≈ 8.36 µM)		
COc1ccc(-c2nc3ccc(-c4ccc5nc(-c6ccc(OC)c(O)c6)[nH]c5c4)cc3[nH]2)cc1O [Example 4, 5-[2'-(3-Hydroxy-4-methoxy-phenyl)-6,6'-dibenzimidazol-2-yl]-2-methoxy-phenol]	≤ 0.25	> 128	≤ 0.25	> 128	> 128	1 (≈ 2.09 µM)	≤ 0.25	2 (≈ 4.18 µM)	> 128	> 128	32 (≈ 66.9 µM)	> 128	> 128	> 128	> 128	> 128	0.5 (≈ 1.04 µM)	0.5 (≈ 1.04 µM)	≤ 0.25		MIC (S. aureus 101): ≤ 0.25 µg/mL
Oc1cccc(-c2nc3ccc(-c4ccc5nc(-c6cccc(O)c6)[nH]c5c4)cc3[nH]2)c1 [Example 6, 3-[2'-(3-Hydroxy-phenyl)-6,6'-dibenzimidazol-2-yl]-phenol]	2 (≈ 4.78 µM)	> 128	2 (≈ 4.78 µM)	> 128		1 (≈ 2.39 µM)	0.5 (≈ 1.19 µM)	1 (≈ 2.39 µM)	> 128	> 128	2 (≈ 4.78 µM)	> 128	> 128	> 128	> 128	> 128	2 (≈ 4.78 µM)	2 (≈ 4.78 µM)	1 (≈ 2.39 µM)	> 128	MIC (S. aureus 101): 0.12 µg/mL (≈ 0.287 µM)
Nc1ccc(-c2nc3ccc(-c4ccc5nc(-c6ccc(N)cc6)[nH]c5c4)cc3[nH]2)cc1 [Example 7, 4-[2'-(4-Amino-phenyl)-6,6'-dibenzimidazol-2-yl]-phenylamine]	2 (≈ 4.8 µM)	> 128	≤ 0.12	> 128		4 (≈ 9.6 µM)	0.25 (≈ 0.6 µM)	≤ 0.12	> 128	> 128	≤ 0.12	> 128	> 128	> 128	> 128	> 128	1 (≈ 2.4 µM)	2 (≈ 4.8 µM)	> 0.12	> 128	
COc1ccc(-c2nc3ccc(-c4ccc5nc(-c6ccc(OC)cc6)[nH]c5c4)cc3[nH]2)cc1 [Example 8, 2,2'-Bis-(4-methoxy-phenyl)-6,6'-dibenzimidazole]	0.5 (≈ 1.12 µM)	> 128	8 (≈ 17.9 µM)		> 128	32 (≈ 71.7 µM)	8 (≈ 17.9 µM)	64 (≈ 143 µM)	> 128	> 128		> 128	> 128	> 128	> 128	> 128	1 (≈ 2.24 µM)	0.5 (≈ 1.12 µM)	≤ 0.25		MIC (E. coli 1527 E; E. coli 1527 E, DST agar, 35° C., 20 hours): > 12 µg/mL; MIC (E. faecalis 6; Enterococcus faecalis, 6, 20 h): > 128 µg/mL
CCOc1ccc(-c2nc3ccc(-c4ccc5nc(-c6ccc(OCC)cc6)[nH]c5c4)cc3[nH]2)cc1 [Example 9, 2,2'-Bis-(4-ethoxy-phenyl)-6,6'-dibenzimidazole]	≤ 0.5	> 128	16 (≈ 33.7 µM)	> 128	> 128	> 128	> 128		> 128	> 128	64 (≈ 135 µM)	> 128	> 128	> 128	> 128	> 128	2 (≈ 4.21 µM)	≤ 0.5	1 (≈ 2.11 µM)		MIC (E. coli 159 R): > 128 µg/mL; MIC (E. coli DC2; DC2, 20 h): > 128 µg/mL
c1coc(-c2nc3ccc(-c4ccc5nc(-c6ccco6)[nH]c5c4)cc3[nH]2)c1 [Example 10, 2,2'-Difuran-2-yl-6,6'-dibenzimidazole]		> 128	8 (≈ 21.8 µM)	> 128		0.5 (≈ 1.36 µM)		1 (≈ 2.73 µM)	> 128	> 128		> 128	> 128		> 128	> 128	4 (≈ 10.9 µM)	2 (≈ 5.46 µM)	0.25 (≈ 0.682 µM)	> 128	MIC (E. faecalis 6; Enterococcus faecalis, 6, 20 h): > 128 µg/mL; MIC (P. aeroguinosa 3351; P. aeroguinosa 3351, DST agar, 35° C., 20 hours): > 129 µg/mL
